# Test results reported in PMC4965013, “Open Source Drug Discovery with the Malaria Box Compound Collection for Neglected Diseases and Beyond” (PLoS Pathogens, 2016).
# Experiments:
# [1] = tested on: P. falciparum 3D7 trophozoites; assay: Metabolomic fingerprint profiling LC-MS; type: cell-based, Plasmodium falciparum; design: UDP-D-glucose / ADP-D-glucose: unit not given here; details: for Acetyllysine / N-acetyl-L-ornithine / N-carbamoyl-L-aspartate / NADPH / dAMP / dCMP / dTDP / dTMP / dTTP / dihydroorotate / orotate / DLH / DLS/SDL/SID / PD / PEE / PVNF / 3-phosphoglycerate / ADP-D-glucose / ATP / CDP / D-sedoheptulose-1/7-phosphate / FAD / GMP / NAD+ / NADP+ / Octoluse Bisphosphate / Pyroglutamic acid / UDP-D-glucose / UDP-D-glucuronate / UDP-N-acetyl-glucosamine / UDP / UMP / UTP / a-ketoglutarate / citrate/isocitrate / cytidine / dATP / dGMP/AMP / fumarate / glucose-1/6-phosphate / glycerate / guanine / guanosine / hypoxanthine / indole / inosine / nicotinate / ornithine / phosphoenolpyruvate / pyruvate / ribose-phosphate / sarcosine/alanine / sn-glycerol-3-phosphate / succinate/methylmalonic acid / uridine / xanthosine: S2 Table Metabolomics; for Acetyllysine: metabolite Acetyllysine; for N-acetyl-L-ornithine: metabolite N-acetyl-L-ornithine; for N-carbamoyl-L-aspartate: metabolite N-carbamoyl-L-aspartate; for NADPH: metabolite NADPH; for dAMP: metabolite dAMP; for dCMP: metabolite dCMP; for dTDP: metabolite dTDP; for dTMP: metabolite dTMP; for dTTP: metabolite dTTP; for dihydroorotate: metabolite dihydroorotate; for orotate: metabolite orotate; for DLH: peptide DLH; for DLS/SDL/SID: peptide DLS/SDL/SID; for PD: peptide PD; for PEE: peptide PEE; for PVNF: peptide PVNF; for 3-phosphoglycerate: metabolite 3-phosphoglycerate; for ADP-D-glucose: metabolite ADP-D-glucose; for ATP: metabolite ATP; for CDP: metabolite CDP; for CDP / D-sedoheptulose-1/7-phosphate / GMP / Octoluse Bisphosphate / UDP / UMP / UTP / citrate/isocitrate / dGMP/AMP / fumarate / glucose-1/6-phosphate / glycerate / guanine / guanosine / inosine / pyruvate / sarcosine/alanine / succinate/methylmalonic acid / uridine / xanthosine: change in metabolite level after compound treatment; for D-sedoheptulose-1/7-phosphate: metabolite D-sedoheptulose-1/7-phosphate; for FAD: metabolite FAD; for GMP: metabolite GMP; for NAD+: metabolite NAD+; for NADP+: metabolite NADP+; for Octoluse Bisphosphate: metabolite Octoluse Bisphosphate; for Pyroglutamic acid: metabolite Pyroglutamic acid; for UDP-D-glucose: metabolite UDP-D-glucose; for UDP-D-glucuronate: metabolite UDP-D-glucuronate; for UDP-N-acetyl-glucosamine: metabolite UDP-N-acetyl-glucosamine; for UDP: metabolite UDP; for UMP: metabolite UMP; for UTP: metabolite UTP; for a-ketoglutarate: metabolite a-ketoglutarate; for citrate/isocitrate: metabolite citrate/isocitrate; for cytidine: metabolite cytidine; for dATP: metabolite dATP; for dGMP/AMP: metabolite dGMP/AMP; for fumarate: metabolite fumarate; for glucose-1/6-phosphate: metabolite glucose-1/6-phosphate; for glycerate: metabolite glycerate; for guanine: metabolite guanine; for guanosine: metabolite guanosine; for hypoxanthine: metabolite hypoxanthine; for indole: metabolite indole; for inosine: metabolite inosine; for 2_3-Diphosphoglyceric acid / 4-phosphopantothenate / 6-phospho-D-gluconate / FMN / IMP / Pyrophosphate / Sedoheptoluse bisphosphate / cyclic-AMP / glutathione disulfide / lactate / myo-inositol: metabolite level change after treatment; for nicotinate: metabolite nicotinate; for ornithine: metabolite ornithine; for phosphoenolpyruvate: metabolite phosphoenolpyruvate; for pyruvate: metabolite pyruvate; for ribose-phosphate: metabolite ribose-phosphate; for sarcosine/alanine: metabolite sarcosine/alanine; for sn-glycerol-3-phosphate: metabolite sn-glycerol-3-phosphate; for succinate/methylmalonic acid: metabolite succinate/methylmalonic acid; for uridine: metabolite uridine; for xanthosine: metabolite xanthosine
# P. falciparum = assay: EC50 listed in S2 Table Metabolomics (used to set the concentration tested); type: cell-based; details: Plasmodium falciparum; EC50 used for Factor_XEC50 in metabolomics; read-out: EC50_nM
compound,measurement,setting,value
COc1ccc(-n2ccnc2SCC(=O)Nc2cc(C)ccc2C)c(OC)c1 [MMV019258],Acetyllysine,[1],-0.6249
same,N-acetyl-L-ornithine,[1],-0.6242
same,N-carbamoyl-L-aspartate,[1],3.802
same,NADPH,[1],-0.4851
same,dAMP,[1],-1.834
same,dCMP,[1],0.07117
same,dTDP,[1],-1.878
same,dTMP,[1],-1.688
same,dTTP,[1],-1.338
same,dihydroorotate,[1],5.204
same,orotate,[1],-0.1277
same,DLH,[1],-0.04693
same,DLS/SDL/SID,[1],-0.2869
same,PD,[1],-0.04264
same,PEE,[1],-0.4454
same,PVNF,[1],-2.048
same,3-phosphoglycerate,[1],0.6242
same,ADP-D-glucose,[1],0.3573
same,ATP,[1],0.2564
same,CDP,[1],-1.841
same,D-sedoheptulose-1/7-phosphate,[1],-1.029
same,FAD,[1],0.0674
same,GMP,[1],1.676
same,NAD+,[1],0.1657
same,NADP+,[1],0.1196
same,Octoluse Bisphosphate,[1],-0.03706
same,Pyroglutamic acid,[1],0.9996
same,UDP-D-glucose,[1],0.07144
same,UDP-D-glucuronate,[1],-0.1808
same,UDP-N-acetyl-glucosamine,[1],-0.2701
same,UDP,[1],-2.466
same,UMP,[1],-0.6353
same,UTP,[1],-1.944
same,a-ketoglutarate,[1],0.866
same,citrate/isocitrate,[1],0.4908
same,cytidine,[1],0.5413
same,dATP,[1],0.5274
same,dGMP/AMP,[1],-0.3361
same,fumarate,[1],0.3957
same,glucose-1/6-phosphate,[1],0.221
same,glycerate,[1],0.7468
same,guanine,[1],0.4637
same,guanosine,[1],0.7901
same,hypoxanthine,[1],1.05
same,indole,[1],0.5756
same,inosine,[1],0.8159
same,2_3-Diphosphoglyceric acid,[1],-0.06901
same,4-phosphopantothenate,[1],-0.2542
same,6-phospho-D-gluconate,[1],0.0357
same,FMN,[1],-0.006391
same,IMP,[1],0.3439
same,Pyrophosphate,[1],-0.1345
same,Sedoheptoluse bisphosphate,[1],-0.0261
same,cyclic-AMP,[1],-0.1381
same,glutathione disulfide,[1],-0.07054
same,lactate,[1],0.415
same,myo-inositol,[1],-0.225
same,nicotinate,[1],0.9606
same,ornithine,[1],0.46
same,phosphoenolpyruvate,[1],0.911
same,pyruvate,[1],0.8605
same,ribose-phosphate,[1],0.2278
same,sarcosine/alanine,[1],0.199
same,sn-glycerol-3-phosphate,[1],0.01743
same,succinate/methylmalonic acid,[1],0.09628
same,uridine,[1],0.32
same,xanthosine,[1],1.135
same,EC50,P. falciparum,170 nM
CSC1=NC(=Nc2c(C)cccc2C)C2(CCC(C(C)(C)C)CC2)N1c1ccc(Cl)cc1 (stereo not shown) [MMV666596],Acetyllysine,[1],0.05532
same,N-acetyl-L-ornithine,[1],0.3033
same,N-carbamoyl-L-aspartate,[1],4.209
same,NADPH,[1],0.4611
same,dAMP,[1],-1.695
same,dCMP,[1],-0.02373
same,dTDP,[1],-0.6033
same,dTMP,[1],-0.6441
same,dTTP,[1],-0.4211
same,dihydroorotate,[1],4.453
same,orotate,[1],-0.2494
same,DLH,[1],0.07485
same,DLS/SDL/SID,[1],0.1058
same,PD,[1],0.3494
same,PEE,[1],0.3362
same,PVNF,[1],-0.2122
same,3-phosphoglycerate,[1],0.06499
same,ADP-D-glucose,[1],0.1455
same,ATP,[1],-0.04037
same,CDP,[1],-0.436
same,D-sedoheptulose-1/7-phosphate,[1],-0.1476
same,FAD,[1],0.02917
same,GMP,[1],-0.07998
same,NAD+,[1],-0.07608
same,NADP+,[1],0.2106
same,Octoluse Bisphosphate,[1],-0.01707
same,Pyroglutamic acid,[1],-0.1892
same,UDP-D-glucose,[1],-0.01772
same,UDP-D-glucuronate,[1],-0.05432
same,UDP-N-acetyl-glucosamine,[1],-0.1657
same,UDP,[1],-0.847
same,UMP,[1],-0.5062
same,UTP,[1],-0.6788
same,a-ketoglutarate,[1],-0.3441
same,citrate/isocitrate,[1],-0.1956
same,cytidine,[1],-0.05016
same,dATP,[1],0.3608
same,dGMP/AMP,[1],-0.2908
same,fumarate,[1],0.4042
same,glucose-1/6-phosphate,[1],-0.3631
same,glycerate,[1],-0.704
same,guanine,[1],-0.05943
same,guanosine,[1],0.2542
same,hypoxanthine,[1],-0.3496
same,indole,[1],-0.1947
same,inosine,[1],-0.267
same,2_3-Diphosphoglyceric acid,[1],0.06366
same,4-phosphopantothenate,[1],-0.3594
same,6-phospho-D-gluconate,[1],0.1204
same,FMN,[1],0.0335
same,IMP,[1],-0.08883
same,Pyrophosphate,[1],0.1408
same,Sedoheptoluse bisphosphate,[1],0.09241
same,cyclic-AMP,[1],-0.008887
same,glutathione disulfide,[1],0.04205
same,lactate,[1],-0.4137
same,myo-inositol,[1],-0.699
same,nicotinate,[1],-0.1654
same,ornithine,[1],0.2004
same,phosphoenolpyruvate,[1],0.0459
same,pyruvate,[1],-0.8143
same,ribose-phosphate,[1],0.02121
same,sarcosine/alanine,[1],-0.1953
same,sn-glycerol-3-phosphate,[1],0.3928
same,succinate/methylmalonic acid,[1],0.09915
same,uridine,[1],-0.4544
same,xanthosine,[1],-0.03694
same,EC50,P. falciparum,135 nM
